The values below come from ChEMBL document CHEMBL1201862, “PubChem BioAssay data set” (2004).

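How tested: cells in 96-well plates exposed to compound for 48 hours at five concentrations. GI50: concentration for 50% inhibition of growth.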 Activity calls are given as the source filed them. Cut-off read from the data, not from the text of the source: active = GI50 up to about 1.1 µM and inactive = higher.

Some test systems named below: A498; BT-549; CCRF-CEM; DU-145; HCT-116; HL-60; KM12; MCF7; Malme-3M; NCI-H460; NCI/ADR-RES; SF-268; SK-MEL-5; SR; SW-620; T47D; U-251; UACC-62; UO-31; MOLT-4.
Assay in all cases: NCI anticancer screen, dose series, 48 h

As to `CC(=O)C1=C(C)N(c2ccc(C)cc2)C2(O)C=CC(=O)C3C(=O)N(c4ccccc4)C(=O)C132` (centres undefined), the GI50 in the experiment with A498 was 20.2 µM (inactive); with BT-549, 17.4 µM (inactive); in the experiment on CCRF-CEM, 3.9 µM (inactive); with DU-145, 23.4 µM (inactive); in the experiment on HCT-116, 6.49 µM (inactive); with HL-60, 2.47 µM (inactive). For the same compound, the GI50 is 21.9 µM (inactive) in the experiment on KM12; 8.3 µM (inactive) in the experiment with MCF7; 19.6 µM (inactive) in the experiment on Malme-3M; 29.4 µM (inactive) in the experiment with NCI-H460; 54.2 µM (inactive) with NCI/ADR-RES; 31 µM (inactive) in the experiment with SF-268. Besides, the GI50 in the experiment on SK-MEL-5 was 15.4 µM (inactive); in the experiment with SR, 2.94 µM (inactive); in the experiment with SW-620 it was 4.45 µM (inactive); in the experiment with T47D, 14.1 µM (inactive); in the experiment with U-251, 17.7 µM (inactive); in the experiment on UACC-62, 16.7 µM (inactive). For the same compound, in the experiment with UO-31, the GI50 is 11.2 µM (inactive).
`CN(C)/N=N/c1nc2c(c(=O)n(C)c(=O)n2C)n1C`: the GI50 with A498, with BT-549, with CCRF-CEM, in the experiment with DU-145, in the experiment with HCT-116 and in the experiment on KM12 was > 100 µM (inactive) in each case. Further, the GI50 in the experiment with MCF7 is 7.5 µM (inactive); in the experiment on MOLT-4, > 100 µM (inactive); in the experiment with Malme-3M it was > 100 µM (inactive); in the experiment on NCI-H460, > 100 µM (inactive); in the experiment on NCI/ADR-RES it was > 100 µM (inactive); with SF-268, > 100 µM (inactive). The GI50 with SK-MEL-5 is > 100 µM (inactive); in the experiment with SR, 4.04 µM (inactive); with SW-620, > 100 µM (inactive); in the experiment with T47D, 14.3 µM (inactive); in the experiment on U-251, > 100 µM (inactive); in the experiment with UACC-62 it was > 100 µM (inactive). Also, the GI50 in the experiment with UO-31 was > 100 µM (inactive).
For `COc1ccc(/N=N/c2ccc3oc(=O)c(C(=O)Nc4ccccc4)cc3c2)cc1`, the GI50 in the experiment on A498 is > 10 µM (inactive); in the experiment with BT-549 it was > 10 µM (inactive); with DU-145, > 6.85 µM (inactive); with HCT-116, > 10 µM (inactive); with HL-60 it was 3.16 µM (inactive); in the experiment with KM12, > 10 µM (inactive). The GI50 in the experiment with MCF7 was > 9.29 µM (inactive); with MOLT-4 it was 6.4 µM (inactive); in the experiment with Malme-3M, > 10 µM (inactive); in the experiment with NCI-H460 it was > 10 µM (inactive); with NCI/ADR-RES, > 10 µM (inactive); in the experiment with SF-268, > 8.32 µM (inactive). In addition, the GI50 in the experiment on SK-MEL-5 was > 10 µM (inactive); in the experiment with SR, > 10 µM (inactive); in the experiment on SW-620, > 10 µM (inactive); with T47D, 4.5 µM (inactive); with U-251, > 10 µM (inactive); in the experiment on UACC-62, > 10 µM (inactive). In the experiment with UO-31, the GI50 was 5.52 µM (inactive).
For the compound `COC1=C(Br)C(O)C2(C=C1Br)CC(C(=O)NCCCCNC(=O)C1=NOC3(C=C(Br)C(OC)=C(Br)C3O)C1)=NO2` (centres undefined), the GI50 with A498 is 31 µM (inactive); with BT-549, 33.6 µM (inactive); with CCRF-CEM it was 10.1 µM (inactive); with DU-145, 31.6 µM (inactive); in the experiment with HCT-116, 18.2 µM (inactive); with HL-60, 20.6 µM (inactive). Further, the GI50 with KM12 is 12.4 µM (inactive); in the experiment with MCF7, 21.8 µM (inactive); in the experiment on Malme-3M, 16.4 µM (inactive); in the experiment on NCI-H460 it was 26.4 µM (inactive); in the experiment on NCI/ADR-RES, 51.2 µM (inactive); in the experiment with SF-268 it was 13.5 µM (inactive). In addition, the GI50 was 11.9 µM (inactive) in the experiment on SK-MEL-5; 13.8 µM (inactive) in the experiment with SR; 37.1 µM (inactive) in the experiment on SW-620; 11.4 µM (inactive) in the experiment on T47D; 25.8 µM (inactive) in the experiment with U-251; 31.8 µM (inactive) in the experiment with UACC-62. The GI50 in the experiment on UO-31 was 43.2 µM (inactive).
Regarding `NC(=O)N=C(N(Cc1ccccc1)Cc1ccccc1)N(Cc1ccccc1)Cc1ccccc1`, the GI50 in the experiment on A498 is 39.8 µM (inactive); in the experiment on BT-549, > 100 µM (inactive); in the experiment with CCRF-CEM, > 100 µM (inactive); with DU-145 it was > 100 µM (inactive); in the experiment on HCT-116 it was 3.37 µM (inactive); with KM12, > 100 µM (inactive). Further, the GI50 is 7.29 µM (inactive) in the experiment on MCF7; > 100 µM (inactive) with MOLT-4; > 100 µM (inactive) with Malme-3M; > 100 µM (inactive) with NCI/ADR-RES; 37.2 µM (inactive) with SF-268; > 20.3 µM (inactive) with SK-MEL-5. The GI50 in the experiment with SR was > 100 µM (inactive); in the experiment with SW-620, > 24.3 µM (inactive); with T47D it was > 100 µM (inactive); in the experiment with U-251, 7.45 µM (inactive); in the experiment on UACC-62, 8.39 µM (inactive); in the experiment on UO-31 it was > 100 µM (inactive).
Take `CN1CCN(C(=S)N2CCN(C)CC2)CC1`: the GI50 is 5.62 µM (inactive) in the experiment on A498; > 100 µM (inactive) in the experiment with BT-549; 0.7 µM (active) in the experiment with CCRF-CEM; > 100 µM (inactive) in the experiment with DU-145; > 100 µM (inactive) with HCT-116; > 100 µM (inactive) in the experiment with HL-60. The GI50 was > 100 µM (inactive) with KM12; 1.08 µM (active) with MCF7; > 100 µM (inactive) with Malme-3M; 5.35 µM (inactive) with NCI-H460; 25.3 µM (inactive) in the experiment on NCI/ADR-RES; > 100 µM (inactive) in the experiment on SF-268. Besides, the GI50 with SK-MEL-5 is > 26.1 µM (inactive); in the experiment on SR it was 0.213 µM (active); in the experiment on SW-620, > 30.8 µM (inactive); with T47D it was 2.11 µM (inactive); with U-251 it was > 100 µM (inactive); in the experiment with UACC-62, 4.85 µM (inactive). Moreover, in the experiment on UO-31, the GI50 was > 100 µM (inactive).
Regarding `O=c1oc2ccccc2cc1-c1csc(Nc2ccc(F)cc2)n1`, the GI50 was 1.29 µM (inactive) in the experiment with A498; 6.47 µM (inactive) with BT-549; 2.77 µM (inactive) in the experiment on CCRF-CEM; 2.89 µM (inactive) in the experiment with DU-145; 2.33 µM (inactive) in the experiment on HCT-116; 4.59 µM (inactive) with HL-60. The GI50 is 5.5 µM (inactive) in the experiment on KM12; 2.77 µM (inactive) in the experiment with MCF7; 5.18 µM (inactive) in the experiment with MOLT-4; 5.05 µM (inactive) with NCI-H460; 3.46 µM (inactive) in the experiment on NCI/ADR-RES; 3.15 µM (inactive) in the experiment with SF-268. For the same compound, the GI50 was 10.4 µM (inactive) with SK-MEL-5; 2.36 µM (inactive) in the experiment on SR; 5 µM (inactive) in the experiment on SW-620; 2.3 µM (inactive) in the experiment with T47D; 2.83 µM (inactive) in the experiment with U-251; 12.6 µM (inactive) in the experiment on UACC-62. For the same compound, the GI50 with UO-31 was 2.33 µM (inactive).
For the compound `Nc1nc(I)nc2c1ncn2C1OC(COS(N)(=O)=O)C(O)C1O` (centres undefined), the GI50 with A498 was < 0.01 µM (active); in the experiment with BT-549 it was < 0.0108 µM (active); with CCRF-CEM, < 0.01 µM (active); in the experiment on DU-145, < 0.01 µM (active); in the experiment on HCT-116, < 0.01 µM (active); in the experiment on KM12, < 0.01 µM (active). The GI50 is < 0.01 µM (active) in the experiment on MCF7; < 0.01 µM (active) in the experiment with MOLT-4; < 0.01 µM (active) in the experiment with Malme-3M; 0.0126 µM (active) in the experiment on NCI-H460; < 0.01 µM (active) in the experiment on NCI/ADR-RES; < 0.01 µM (active) in the experiment on SF-268. The GI50 in the experiment on SK-MEL-5 was < 0.01 µM (active); in the experiment on SR, < 0.01 µM (active); in the experiment with SW-620, 0.0235 µM (active); in the experiment with T47D it was < 0.01 µM (active); in the experiment with U-251, < 0.01 µM (active); in the experiment with UACC-62, 0.0226 µM (active). Also, in the experiment with UO-31, the GI50 was 0.0187 µM (active).
For the compound `CCOC(=O)c1c(Sc2ccc([N+](=O)[O-])cc2[N+](=O)[O-])nc2c3ccccc3ccn12`, the GI50 in the experiment on A498 is 62.8 µM (inactive); in the experiment on BT-549, > 75.2 µM (inactive); in the experiment on CCRF-CEM, 40.7 µM (inactive); in the experiment on DU-145, > 100 µM (inactive); in the experiment with HCT-116, > 91 µM (inactive); with HL-60, 11.5 µM (inactive). In addition, the GI50 with KM12 was > 100 µM (inactive); in the experiment with MCF7, > 100 µM (inactive); in the experiment with MOLT-4, > 100 µM (inactive); in the experiment on NCI-H460, > 55.7 µM (inactive); in the experiment on NCI/ADR-RES, > 71.9 µM (inactive); with SF-268, 28.6 µM (inactive). In addition, the GI50 is 80.2 µM (inactive) with SK-MEL-5; > 100 µM (inactive) in the experiment on SR; > 100 µM (inactive) with SW-620; > 100 µM (inactive) in the experiment on T47D; 31.8 µM (inactive) with U-251; > 39.8 µM (inactive) in the experiment with UACC-62. For the same compound, in the experiment on UO-31, the GI50 is > 41.9 µM (inactive).
As to `OC[C@H]1O[C@@H]2O[C@@](COCc3ccccc3)([C@H](OCc3ccccc3)[C@H]2O)[C@@H]1OCc1ccccc1`, the GI50 in the experiment on A498 is 18.1 µM (inactive); in the experiment with BT-549, 22.2 µM (inactive); in the experiment on CCRF-CEM, 13.4 µM (inactive); in the experiment on DU-145, 16.5 µM (inactive); in the experiment with HCT-116, 16.5 µM (inactive); with HL-60, 18.2 µM (inactive). Besides, the GI50 is 16.7 µM (inactive) in the experiment with KM12; 20.6 µM (inactive) in the experiment on MCF7; 4.98 µM (inactive) in the experiment with MOLT-4; 17 µM (inactive) with NCI-H460; 17.2 µM (inactive) in the experiment with NCI/ADR-RES; 18.1 µM (inactive) in the experiment on SF-268. Also, the GI50 in the experiment on SK-MEL-5 is 15.3 µM (inactive); with SR it was 2.33 µM (inactive); in the experiment on SW-620, 20.2 µM (inactive); with T47D it was 14.8 µM (inactive); in the experiment with U-251, 15.7 µM (inactive); with UACC-62, 14.4 µM (inactive). Further, the GI50 in the experiment with UO-31 was 15.6 µM (inactive).
